Consider two compounds from ChEMBL document CHEMBL4311972, “Discovery of a benzothiophene-flavonol halting miltefosine and antimonial drug resistance in Leishmania parasites through the application of medicinal chemistry, screening and genomics” (Eur J Med Chem, 2019).

Usually inhibition in vivo stands for how much of the control response was suppressed. One may read the inhibition as the relative decrease from the control value, in per cent. One may read the Kd as a measure of binding affinity in units of concentration. Read a low Kd as higher affinity. The term Cmax denotes the peak of the concentration-time curve. As usually defined, the half-life is how long it takes for the measured level to halve. As usually defined, the Tmax is the time at which the peak concentration occurs.

Several values for one entry are separate records, joined by “and”; a condition that tells them apart may be missing. Equal entries are not always repeated. Activity calls are given as the source filed them. The calls are words filed in the database; no cut-off is given here.

Data set [1] in a line: Toxicity in Syrian hamster infected with Leishmania infantum BCN150 promastigotes assessed as effect on AST level at 20 mg/kg/day, po for 10 days measured after the last treatment. The data set is classed as organism-based, Mesocricetus auratus. Conditions: in vivo, 240 h.
Data set [2] in a line: Toxicity in Syrian hamster infected with Leishmania infantum BCN150 promastigotes assessed as effect on plasma urea level at 20 mg/kg/day, po for 10 days measured after the last treatment. Format: organism-based, Mesocricetus auratus. Conditions: in vivo, 240 h.
A short description of data set [3]: Plasma concentration in syrian hamster infected with Leishmania infantum BCN150 promastigote at 20 mg/kg/day, po for 10 days. The data set is classed as ADME, organism-based, Mesocricetus auratus.
The subject of data set [4] is Leishmania infantum. The data set can be described thus: Antileishmanial activity against Leishmania infantum amastigotes infected in Syrian hamster assessed as reduction in parasite load in liver at 20 mg/kg/day, po for 10 days relative to control. The data set is classed as functional. Conditions: 240 h.
In data set [5] the test system is Leishmania infantum. Nature of the data set: Antileishmanial activity against Leishmania infantum amastigotes infected in Syrian hamster assessed as parasite load within liver at 20 mg/kg/day, po for 10 days (reference value: 5333333.333 +/- 3011090.611/g). The data set is classed as functional.
Data set [6] has as its system Leishmania infantum. Nature of the data set: Anti-leishmanial activity against Leishmania infantum BCN150 promastigotes infected in Syrian hamster assessed as decrease in anti-leishmanial IgG level at 20 mg/kg/day, po for 10 days by ELISA. The data set is classed as functional, organism-based. On the technique in general: In an ELISA, binding on a coated surface is turned into a signal by an enzyme label.

Data set [7] in a line: Toxicity in Syrian hamster infected with Leishmania infantum BCN150 promastigotes assessed as effect on plasma creatinine level at 20 mg/kg/day, po for 10 days measured after the last treatment. The data set is classed as organism-based, Mesocricetus auratus. Conditions: in vivo, 240 h.
The nature of data set [8]: Toxicity in Syrian hamster infected with Leishmania infantum BCN150 promastigotes assessed as spleen lesions at 20 mg/kg/day, po for 10 days. The data set is classed as organism-based, Mesocricetus auratus. As to conditions: in vivo, 240 h.
Data set [9] addresses T1, Albumin (Homo sapiens, UniProt P02768). The data set can be described thus: Binding affinity to human serum albumin in phosphate buffer assessed as increase in emission anisotropy at 530 nm at 5 uM measured at pH 8 by fluorescence emission spectrum analysis. Format: ADME. As to conditions: isolated protein.
Data set [10] in a line: Toxicity in Syrian hamster infected with Leishmania infantum BCN150 promastigotes assessed as liver lesions at 40 mg/kg/day, po for 10 days formulated with 30 to 50% v/v cyclodextrin measured under necropsy. Format: organism-based, Mesocricetus auratus. As to conditions: in vivo, 240 h.
Data set [11] in a line: Toxicity in Syrian hamster infected with Leishmania infantum BCN150 promastigotes assessed as effect on plasma urea level at 40 mg/kg/day, po for 10 days formulated with 30 to 50% v/v cyclodextrin measured after the last treatment. As to conditions: in vivo, 240 h. The data set is classed as organism-based, Mesocricetus auratus.
The test system of data set [12] is Leishmania infantum. Nature of the data set: Antileishmanial activity against Leishmania infantum amastigotes infected in Syrian hamster assessed as parasite load within liver at 40 mg/kg/day, po for 10 days formulated with 8% v/v DMSO (reference value: 5333333.333 +/- 3011090.611/g). The data set is classed as functional.
A short description of data set [13]: Selectivity index, ratio of CC50 for human THP1 cells to EC50 for Trypanosoma brucei bloodstream form. The data set is classed as toxicity. As to conditions: read-out: Ratio CC50/EC50.
Data set [14] deals with T1, Albumin. Nature of the data set: Binding affinity to human serum albumin by fluorescence based assay. The data set is classed as ADME.
Data set [15] is described as follows: Cmax in BALB/c mouse at 1 mg/kg, iv measured upto 72 hrs by snapshot method. Format: ADME, organism-based. Further details: dose 1 mg/kg, route intravenous. Conditions: in vivo.
The nature of data set [16]: Plasma concentration in syrian hamster infected with Leishmania infantum BCN150 promastigote at 40 mg/kg/day, po for 10 days formulated with 50% v/v cyclodextrin. Format: ADME, organism-based, Mesocricetus auratus.
Data set [17] can be described thus: Toxicity in Syrian hamster infected with Leishmania infantum BCN150 promastigotes assessed as effect on AST level at 40 mg/kg/day, po for 10 days formulated with 8% v/v DMSO measured after the last treatment. Format: organism-based, Mesocricetus auratus. As to conditions: in vivo, 240 h.
The nature of data set [18]: Cmax in BALB/c mouse at 20 mg/kg, po measured upto 72 hrs by snapshot method. Format: ADME, organism-based. Further details: dose 20 mg/kg, route oral. As to conditions: in vivo.
Data set [19] can be described thus: Selectivity index, ratio of CC50 for human THP1 cells to EC50 for luciferase expressing intracellular amastigote stage of Leishmania infantum infected in human THP1 cells. The data set is classed as toxicity, cell-based. As to conditions: read-out: Ratio CC50/EC50.
A further data set has as its system WI-38. The data set can be described thus: Cytotoxicity against human WI38 cells incubated for 48 hrs by Celltiter-Glo luminescence assay. The data set is classed as cell-based. As to conditions: wi-38, 48 h. (In general: In ATP-based viability assays light output follows the ATP content of the culture.)
A short description of data set [20]: Toxicity in Syrian hamster infected with Leishmania infantum BCN150 promastigotes assessed as effect on plasma creatinine level at 40 mg/kg/day, po for 10 days formulated with 30 to 50% v/v cyclodextrin measured after the last treatment. The data set is classed as organism-based, Mesocricetus auratus. As to conditions: in vivo, 240 h.
Data set [21] has as its system Leishmania infantum. The data set can be described thus: Antileishmanial activity against Leishmania infantum amastigotes infected in Syrian hamster assessed as parasite load within liver at 40 mg/kg/day, po for 10 days formulated with 30% v/v cyclodextrin (reference value: 4333333.333 +/- 3444802.849 /g). The data set is classed as functional.
In data set [22] the test system is Leishmania infantum. The data set can be described thus: Antileishmanial activity against Leishmania infantum amastigotes infected in Syrian hamster assessed as parasite load within spleen at 40 mg/kg/day, po for 10 days formulated with 8% v/v DMSO (reference value: 9151063.431 +/- 2606154.975/g). Format: functional.
A short description of data set [23]: Toxicity in Syrian hamster infected with Leishmania infantum BCN150 promastigotes assessed as spleen lesions at 40 mg/kg/day, po for 10 days formulated with 30 to 50% v/v cyclodextrin measured under necropsy. Format: organism-based, Mesocricetus auratus. Conditions: in vivo, 240 h.
Data set [24] in a line: Half-life in BALB/c mouse at 1 mg/kg, iv measured upto 72 hrs by snapshot method. The data set is classed as ADME, organism-based. As to conditions: in vivo.
The next data set deals with CYP2C9 (Homo sapiens, UniProt P11712). Nature of the data set: Inhibition of human microsomal CYP2C9 expressed in baculovirus infected insect cells at 10 uM using luciferin-H as substrate preincubated with enzyme/substrate mixture for 30 mins followed by further incubation with NADPH for 30 mins by CYP450 luciferase Glo assay relative to control. Format: ADME. As to conditions: probe luciferin-H.
Chain of CYP2C9 (P11712 whole entry): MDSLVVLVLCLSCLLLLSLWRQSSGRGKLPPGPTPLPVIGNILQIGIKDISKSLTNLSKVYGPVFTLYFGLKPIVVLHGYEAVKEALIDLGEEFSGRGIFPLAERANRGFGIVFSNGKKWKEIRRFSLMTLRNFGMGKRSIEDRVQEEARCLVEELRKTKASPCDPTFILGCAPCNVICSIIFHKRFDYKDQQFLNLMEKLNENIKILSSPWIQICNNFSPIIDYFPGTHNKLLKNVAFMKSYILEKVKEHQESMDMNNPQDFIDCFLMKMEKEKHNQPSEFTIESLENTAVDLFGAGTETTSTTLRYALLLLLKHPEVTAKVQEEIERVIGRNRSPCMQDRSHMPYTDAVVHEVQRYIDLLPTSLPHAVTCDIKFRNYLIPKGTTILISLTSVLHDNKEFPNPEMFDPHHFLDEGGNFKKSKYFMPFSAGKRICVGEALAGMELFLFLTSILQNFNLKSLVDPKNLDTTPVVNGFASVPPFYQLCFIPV

A further data set has as its target T2, Beta-casein (Bos taurus, UniProt P02666).
T2 sequence (P02666 whole entry): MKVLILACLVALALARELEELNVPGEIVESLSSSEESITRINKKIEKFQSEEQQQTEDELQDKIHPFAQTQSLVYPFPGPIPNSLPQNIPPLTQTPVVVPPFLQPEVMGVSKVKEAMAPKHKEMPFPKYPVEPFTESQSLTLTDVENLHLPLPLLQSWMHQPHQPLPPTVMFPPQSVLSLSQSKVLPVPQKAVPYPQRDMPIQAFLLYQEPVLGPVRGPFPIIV
The data set can be described thus: Binding affinity to bovine milk beta-casein in phosphate buffer assessed as increase in emission intensity at 530 nm at 5 uM measured at pH 8 by fluorescence emission spectrum analysis. Format: ADME. Conditions: cattle.

Data set [25] deals with Albumin (Bos taurus, UniProt P02769). Nature of the data set: Binding affinity to bovine serum albumin in phosphate buffer assessed as decrease in emission intensity at 450 nm at 5 uM measured at pH 8 by fluorescence emission spectrum analysis. Format: ADME. As to conditions: cattle, isolated protein.
Chain of Albumin (Bos taurus, UniProt P02769) (P02769 whole entry): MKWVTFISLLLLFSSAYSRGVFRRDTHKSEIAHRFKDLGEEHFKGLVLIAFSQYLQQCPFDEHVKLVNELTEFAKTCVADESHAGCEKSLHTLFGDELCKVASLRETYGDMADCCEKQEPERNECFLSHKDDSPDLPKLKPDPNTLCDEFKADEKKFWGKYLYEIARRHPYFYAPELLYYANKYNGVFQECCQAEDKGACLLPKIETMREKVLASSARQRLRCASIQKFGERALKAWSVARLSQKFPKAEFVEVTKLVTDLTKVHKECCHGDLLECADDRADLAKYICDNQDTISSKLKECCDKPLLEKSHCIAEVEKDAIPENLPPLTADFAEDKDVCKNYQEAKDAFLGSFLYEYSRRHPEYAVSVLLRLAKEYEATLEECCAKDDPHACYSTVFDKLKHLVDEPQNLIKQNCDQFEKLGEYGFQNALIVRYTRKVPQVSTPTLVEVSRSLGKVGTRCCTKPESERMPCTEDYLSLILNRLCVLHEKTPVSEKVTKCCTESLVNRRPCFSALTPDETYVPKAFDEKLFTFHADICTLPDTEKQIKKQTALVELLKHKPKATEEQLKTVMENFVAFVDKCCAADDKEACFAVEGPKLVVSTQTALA
A short description of data set [26]: Toxicity in Syrian hamster infected with Leishmania infantum BCN150 promastigotes assessed as adverse effects at 20 mg/kg/every 12 hrs, po for 10 days formulated with 50% v/v cyclodextrin measured daily. Format: organism-based, Mesocricetus auratus. Conditions: in vivo.
Data set [27] is described as follows: Tmax in BALB/c mouse at 1 mg/kg, iv measured upto 72 hrs by snapshot method. Format: ADME, organism-based. As to conditions: in vivo.
The nature of data set [28]: Chemical stability of compound in PBS assessed as decrease in absorbance at 20 uM at pH 8 measured after 2 mins nitrogen bubbling by UV-vis spectrophotometry analysis. The data set is classed as physicochemical. Conditions: read-out: Drug degradation.
Data set [29] is described as follows: Chemical stability of compound in PBS assessed as decrease in absorbance at 60 uM at pH 7 to 8 and 25 degC measured within 20 mins under dark conditions by UV-vis spectrophotometry analysis. Format: physicochemical. As to conditions: read-out: Drug degradation.

T1 sequence (P02768 whole entry): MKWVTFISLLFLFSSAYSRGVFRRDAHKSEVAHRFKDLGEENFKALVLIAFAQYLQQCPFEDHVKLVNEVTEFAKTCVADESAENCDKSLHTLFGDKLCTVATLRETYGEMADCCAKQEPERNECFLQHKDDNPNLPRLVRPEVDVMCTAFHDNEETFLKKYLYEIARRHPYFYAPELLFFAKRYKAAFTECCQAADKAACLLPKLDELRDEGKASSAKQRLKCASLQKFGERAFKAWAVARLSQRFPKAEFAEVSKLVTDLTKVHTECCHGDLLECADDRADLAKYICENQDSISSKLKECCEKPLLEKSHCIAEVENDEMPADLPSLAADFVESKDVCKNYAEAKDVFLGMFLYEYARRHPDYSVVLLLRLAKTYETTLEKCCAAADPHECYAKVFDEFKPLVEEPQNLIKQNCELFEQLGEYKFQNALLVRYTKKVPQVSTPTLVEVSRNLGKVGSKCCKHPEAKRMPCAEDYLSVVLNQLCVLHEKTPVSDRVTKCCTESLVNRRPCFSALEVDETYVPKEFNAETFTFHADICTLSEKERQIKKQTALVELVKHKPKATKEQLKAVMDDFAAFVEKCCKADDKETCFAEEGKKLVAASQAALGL

Turning to `CCCCCCCCCCCCCCCCOP(=O)([O-])OCC[N+](C)(C)C` [MILTEFOSINE], the Activity result in [1] is “Non-Toxic”; in [2], “Non-Toxic”; in the data set on Leishmania infantum [5], 1000000 g⁻¹; in data set [7] it was “Non-Toxic”; in data set [8] it was “Non-Toxic”. The same compound displayed a concentration at 240 h in data set [3] of 59.3 µM. The inhibition in vivo at 20 mg/kg/day with Leishmania infantum [4] stood at 81.2%. Moreover, the inhibition entry with Leishmania infantum [6] was “Active”.

With `COc1ccc2oc(-c3csc4ccccc34)c(O)c(=O)c2c1`, the Activity result was “Active” at Albumin [9]; “Non-Toxic” in data set [10]; “Non-Toxic” in data set [11]; 4285714.286 g⁻¹ in the data set with Leishmania infantum [12]; “Non-Toxic” in [17]; “Non-Toxic” in the data set with WI-38. The Activity entry is “Non-Toxic” in data set [20]; 3428571.429 g⁻¹ in the data set on Leishmania infantum [21]; 6785423.957 g⁻¹ in the data set with Leishmania infantum [22]; “Non-Toxic” in [23]; “Active” on Beta-casein; “Active” on Albumin [25]. In addition, the Activity entry in data set [26] was “Non-Toxic”. Moreover, the figures for the selectivity ratio in data set [13] and in data set [19] were 33 and 17, respectively. At Albumin [14], this compound had a Kd of less than 10 µM. For the same compound, the Cmax in data set [15] was 4.76 µM and 1540 ng/mL; in data set [18], 1.96 µM and 630 ng/mL. In [16], this compound yielded a concentration at 240 h of 0.038 µM. The half-life in data set [24] is 63.2 h. Moreover, the inhibition at 0.5 h, 10 µM on CYP2C9 was -10%. For the same compound, the Tmax in data set [27] is 4.8 min. Also, in data set [28], the degraded at 2 min, 20 µM was more than 90%. For the same compound, the degraded at 20 min, 60 µM in [29] amounted to 50%.
